# From publication PMC12561453, “Synthesis and Structure–Activity Relationship Study of 2-(amino)quinazolin-4(3H)-one Derivatives as Potential Inhibitors of Methicillin-Resistant Staphylococcus aureus (MRSA)” (Antibiotics, 2025)
# Read-outs that look alike come from different tables or passages of the source.
# What was measured:
# S. aureus USA300 JE2 = test: Broth microdilution dose-response, S. aureus USA300 JE2 (MRSA); assay type: cell-based, Staphylococcus aureus; settings: for MIC50: Staphylococcus aureus, USA300, USA300 JE2, methicillin-resistant, OD600 after 18–24 h, read-out: USA300 MIC50; for antibacterial activity (in words): JE2; for fold better antibacterial activity against JE2 compared to compound 1: JE2, versus compound 1
# Source text: (§1) The antistaphylococcal activities (MIC50) of the synthesized compounds were examined via a previously described broth microdilution method against two S. aureus strains: ATCC25923, a methicillin-sensitive reference strain, and JE2, a methicillin-resistant strain of the USA300 lineage (Figure 2, Table 1).
# (§2) Staphylococcus aureus USA300, a methicillin-resistant strain, was obtained from the Nebraska Transposon Mutant Library. Staphylococcus aureus ATCC25923, a pan-drug-susceptible strain, was purchased from the American Type Culture Collection (ATCC) (Manassas, VA, USA). S. aureus strains were grown in Cation-Adjusted Mueller–Hinton broth (CAMHB) (Difco) at 37 °C. Bacterial strain stocks were stored in vials with 25% glycerol at −80 °C. For each experiment, overnight cultures were prepared by inoculating a frozen bacterial strain stock in 10 mL of CAMHB medium and incubating at 37 °C in a shaking incubator (180 rpm). For the preliminary screen and dose–response experiments, 100 µL of overnight culture was inoculated into 10 mL of fresh CAMHB and incubated for 3 h at 37 °C and 180 rpm.
# (§3) Antibiotic susceptibility assay was tested according to modified Clinical and Laboratory Standards Institute (CLSI) laboratory guidelines for broth microdilution assays. S. aureus was cultured in CAMHB, and bacterial cells were prepared with an OD600 of 0.005. DRC plates were prepared by adding 40 µL of bacterial suspension to each well, where 10 µL of each compound had been dispensed for […] of two-fold serial dilutions starting at […]. After incubation of the plates at 37 °C for 18–24 h with 5% CO2, the growth of S. aureus was detected by measuring the OD600nm using an Ensight (Revvity) spectrometer (Revvity, Waltham, MA, USA).
# (§4) Figure 2 In vitro antibacterial activities of 2-(amino)quinazolin-4(3H)-one derivatives. S. aureus ATCC25923 (blue) and USA300 JE (orange) strains were incubated with serial dilutions of 2-(amino)quinazolin-4(3H)-one derivatives (0.19–100 µM) for 18–24 h. The dose–responses were observed by measuring OD600nm. The plots were drawn from each group of strains with nonlinear curve fits.
# S. aureus ATCC25923 = test: Broth microdilution dose-response, S. aureus ATCC25923; assay type: cell-based, Staphylococcus aureus; settings: for MIC50: OD600 after 18–24 h, read-out: ATCC25923 MIC50; for antibacterial activity (in words): ATCC25923
# Source text: as §1, §2, §3, §4
# [1] = system: S. aureus USA300 JE2 expressing GFP in H460 cells; test: microbe, parasite or virus in culture; assay type: cell-based, Staphylococcus aureus; settings: for MIC50: Staphylococcus aureus, USA300, 24 h, read-out: H460 Assay MIC50 (MIC50 ex vivo)
# Source text: Staphylococcus aureus, including MRSA, can invade host cells and replicate intracellularly, which complicates treatment with current therapies. To evaluate the intracellular antibacterial activities of the selected compounds, the fifteen compounds tested for cytotoxicity were further assessed using a cell infection model based on H460 human lung epithelial cells, which mimic MRSA-mediated pneumonia. H460 cells were infected with the USA300 JE2 expressing green fluorescent protein (GFP) and subsequently treated with the compounds in a dose–response manner, along with three reference antibiotics: vancomycin, linezolid, and erythromycin. After 24 h of incubation, bacterial loads were quantified by measuring GFP fluorescence in each well. MIC50 values determined in the H460 infection model (MIC50 ex vivo) were generally higher than those obtained from the in vitro tests, likely due to either limited compound penetration into host cells or reduced antibacterial effect of the compounds against intracellular bacteria (Figure 3, Table 2). […] These findings underscore the potential of compound 6y as a promising lead for further development as a novel antistaphylococcal agent.
# To see the ex vivo antimicrobial activity of the compound, the human lung carcinoma cell line H460 (ATCC #HTB-177) was used. The H460 cells were cultured in RPMI 1640 medium with 10% fetal bovine serum (FBS) and in a 96-well microplate at 37 °C and 5% CO2. Cell lines were cultured for 2 days, until they reached full confluence in the well. S. aureus (USA300-containing and pCM29-encoding GFP) was cultured in CAMHB with 10 µg/mL of chloramphenicol, and bacterial cells were harvested. After washing the bacterial cells with phosphate-buffered saline (PBS) and suspending them in RPMI, infected H460 cells with S. aureus (1 × 10^7 CFU) and incubated them for 2.5 h. Samples were washed three times with PBS. Then, cells were treated with gentamicin (50 µg/mL of gentamicin in RPMI) and incubated for 1 h. Samples were washed with PBS, RPMI-containing diluted compounds were added, and then they were incubated at 37 °C in 5% CO2 for 24 h. To detect the Green fluorescent protein (GFP) signal, an Ensight multimode plate reader and Opera Phenix Plus (Revvity, Waltham, MA, USA) were used.
# Ex vivo infection model images were generated using the Opera Phenix Plus high-content imaging system. Images were obtained by a confocal microscope with a 20× water objective lens. To detect the bacteria fluorescence signal (GFP), the Alexa 488 channel (488 nm laser/500–550 filter, Thermo Fisher Scientific, Waltham, MA, USA) was used, and the brightfield channel was used for H460 cell images.
# Figure 3 Antibacterial activities of 2-(amino)quinazolin-4(3H)-one derivatives in the H460 infection model. H460 cells were infected with S. aureus USA300 JE strain expressing GFP, followed by treatment with serial dilutions of 2-(amino)quinazolin-4(3H)-one derivatives. After incubation at 37 °C for 24 h with 5% CO2, fluorescence signals of the bacteria were detected at 488 nm/510 nm using a multilabel plate reader.
# HepG2 cells = test: In vitro cytotoxicity, HepG2 viability (resazurin); assay type: cell-based, human; settings: Homo sapiens, HepG2, 24 h, HepG2 cells, 24 h, resazurin; read-out: HepG2 IC50
# Procedure: The in vitro cytotoxicity of the compounds was evaluated by measuring the viability of HepG2 cells, a human liver cell line, following treatment in a dose–response manner, as previously described. […] The efficacy window was calculated as the ratio of IC50 in HepG2 cells to MIC50 against JE2.
# To test cytotoxicity with compounds, the human liver cell line HepG2 (ATCC #HB-8065) was used for the assay. HepG2 was cultured in DMEM with 10% fetal bovine serum (FBS) in a 96-well microplate at 37 °C and 5% CO2. HepG2 cells were seeded at a final density of 5 × 10^4 cells/well, and DMEM-containing diluted compounds were added and incubated on the plates at 37 °C in 5% CO2 for 24 h. After that, resazurin (final concentration, 0.1 mg/mL) was added to each well and incubated on the plates at 37 °C in 5% CO2 for 2 h. To detect the fluorescence at 530 nm excitation and 590 nm emission, an Ensight multimode plate reader was used (Revvity, Waltham, MA, USA).
# [2] = Staphylococcus aureus, ATCC25923, methicillin-sensitive strain
Structure (SMILES),MIC50 (S. aureus USA300 JE2) [µM],MIC50 (S. aureus ATCC25923; [2]) [µM],antibacterial activity (in words) (S. aureus USA300 JE2),antibacterial activity (in words) (S. aureus ATCC25923),fold better antibacterial activity against JE2 compared to compound 1 (S. aureus USA300 JE2),MIC50 [1] [µM],MIC50 (S. aureus ATCC25923; methicillin-sensitive strain) [µM],IC50 (HepG2 cells) [µM],"H460 Assay MIC50 (MIC50 ex vivo) ([1]; H460 cells infected with USA300 JE2-GFP, 24 h, GFP fluorescence) [µM]"
"O=c1[nH]c(Nc2cc(Cl)cc(Cl)c2)nc2c(Cl)c(Cl)ccc12 [6a, 7,8-Dichloro-2-((3,5-dichlorophenyl)amino)quinazolin-4(3H)-one]",6.9,10.8,,,,,,,
"O=c1[nH]c(Nc2cc(Cl)cc(Cl)c2)nc2cc(N3CCOCC3)ccc12 [6b, 2-((3,5-Dichlorophenyl)amino)-7-morpholinoquinazolin-4(3H)-one]",> 100,> 100,complete abolition of antibacterial activity,complete abolition of antibacterial activity,,,,,
"COc1cc2nc(Nc3cc(Cl)cc(Cl)c3)[nH]c(=O)c2cc1OC [6c, 2-((3,5-Dichlorophenyl)amino)-6,7-dimethoxyquinazolin-4(3H)-one]",> 100,> 100,complete abolition of antibacterial activity,complete abolition of antibacterial activity,,,,,
"COc1ccc2c(=O)[nH]c(Nc3cc(Cl)cc(Cl)c3)nc2c1 [6d, 2-((3,5-Dichlorophenyl)amino)-7-methoxyquinazolin-4(3H)-one]",> 100,> 100,complete abolition of antibacterial activity,complete abolition of antibacterial activity,,,,,
"O=c1[nH]c(Nc2cc(Cl)cc(Cl)c2)nc2cc([N+](=O)[O-])ccc12 [6e, 2-((3,5-Dichlorophenyl)amino)-7-nitroquinazolin-4(3H)-one]",,3 to 6,,,at least 6.5 fold,68.8,3.0,9.3,
"O=c1[nH]c(Nc2cc(Cl)cc(Cl)c2)nc2c(Br)cc(Br)cc12 [6f, 6,8-Dibromo-2-((3,5-dichlorophenyl)amino)quinazolin-4(3H)-one]",,3 to 6,,,at least 6.5 fold,8.7,6.0,9.6,
"O=c1[nH]c(Nc2cc(Cl)cc(Cl)c2)nc2cc(F)c(F)cc12 [6g, 2-((3,5-Dichlorophenyl)amino)-6,7-difluoroquinazolin-4(3H)-one]",,3 to 6,,,at least 6.5 fold,25.3,4.0,12.9,
"O=c1[nH]c(Nc2ccccc2)nc2cc(Cl)ccc12 [6m, 7-Chloro-2-(phenylamino)quinazolin-4(3H)-one]",> 100,> 100,complete loss of activity,complete loss of activity,,,,,
"O=c1[nH]c(Nc2cccc(F)c2)nc2cc(Cl)ccc12 [6n, 7-Chloro-2-((3-fluorophenyl)amino)quinazolin-4(3H)-one]",,,,,,43.8,,19.7,
"O=c1[nH]c(Nc2ccc(F)cc2F)nc2cc(Cl)ccc12 [6o, 7-Chloro-2-((2,4-difluorophenyl)amino)quinazolin-4(3H)-one]",> 100,> 100,complete loss of activity,complete loss of activity,,,,,
"COc1cccc(Nc2nc3cc(Cl)ccc3c(=O)[nH]2)c1 [6p, 7-Chloro-2-((3-methoxyphenyl)amino)quinazolin-4(3H)-one]",24.9,35.1,Decreased antibacterial activities,Decreased antibacterial activities,,,,,
"O=c1[nH]c(Nc2cccc(C(F)(F)F)c2)nc2cc(Cl)ccc12 [6r, 7-Chloro-2-((3-(trifluoromethyl)phenyl)amino)quinazolin-4(3H)-one]",,2.1 to 4.5,,,,35.8,3.1,15.1,
"O=c1[nH]c(NCC2CCCCC2)nc2cc(Cl)ccc12 [6s, 7-Chloro-2-((cyclohexylmethyl)amino)quinazolin-4(3H)-one]",18.1,35.5,Decreased antibacterial activities,Decreased antibacterial activities,,,,,
"O=c1[nH]c(Nc2ccccc2Cl)nc2cc(Cl)ccc12 [6t, 7-Chloro-2-((2-chlorophenyl)amino)quinazolin-4(3H)-one]",> 100,> 100,complete loss of activity,complete loss of activity,,,,,
"O=c1[nH]c(NCc2cc(F)cc(F)c2)nc2cc(Cl)ccc12 [6w, 7-Chloro-2-((3,5-difluorobenzyl)amino)quinazolin-4(3H)-one]",> 100,> 100,complete loss of activity,complete loss of activity,,,,,
"O=c1[nH]c(Nc2cc(Cl)cc(Cl)c2)nc2c(Cl)ccc(Cl)c12 [compound 1, 5,8-Dichloro-2-((3,5-dichlorophenyl)amino)quinazolin-4(3H)-one]",12.9,3.9,,,,,,,
"CC(=O)NC[C@H]1CN(c2ccc(N3CCOCC3)c(F)c2)C(=O)O1 [linezolid, reference compound]",,,,,,,,,1.2
